# Patent publication US11802305B2, “Detection processes using sites of chromosome interaction” (Oxford Biodynamics PLC, priority 2015, dated 2023)
# Experiments:
# MYD88 locus = settings: 72 hr treatment with TCP (1 uM), AML cell lines THP-1 and MV4-11, relative to untreated cells
# Protocol: Two AML (acute myeloid leukemia) cell lines THP-1 and MV4-11 were tested with the above compound. […] The positions across the gene have been created and selected based on restriction sites and other features of detection and primer efficiency and were then analysed for interactions. […] Below are the PCR EpiSwitch™ marker results for the MyD88 locus for cell lines THP-1 and MV4-11. FACS analysis was used to sort for the expression of CD11b± cells, as an indicator of differentiation.
# However, epigenetic changes observed for chromosome signatures are clean to follow a binary format of 0 or 1.
# [1] = cited from earlier work
SMILES,fold change at MYD88 locus (GEX and EpiSwitch) (MYD88 locus) [fold],effect on lifespan of ALS patients [1]
"N[C@@H]1C[C@H]1c1ccccc1 (racemic) [TCP, tranylcypromine]",1.5,–
Nc1nc2ccc(OC(F)(F)F)cc2s1 [riluzole],–,modest increase in lifespan
